Data on five molecules can be found in patent US10786474B2, “Pharmaceutical suspensions containing drug particles, devices for their administration, and methods of their use” (SynAgile Corporation, priority 2015, dated 2020).

Structures are written as SMILES. ≈ marks a conversion by molar mass, not a printed value. Where “and” joins values, the source holds several entries; their conditions need not be identical. Equal entries are not always repeated. Where two headings read alike, the source gives them in different places.

For data set [1] the following is noted: in vivo; cited from earlier work.
The conditions of data set [2]: extended release tablets; various studies; cited from earlier work.
The conditions of data set [3]: assumed for dissolution of orally delivered solid LD in saliva; cited from earlier work.
Data set [4] in a line: Solubility of LD. The data set is classed as physicochemical. Particulars: citrate buffered solution of about pH 4.5, 25° C. The method, then:
LD is poorly soluble in most non-toxic solvents, including water and alcohols. […] LD is even less soluble in alcohols. To deliver a typical daily dose of 1,000 mg approximately 150 mL of saturated LD aqueous solution would be required, which is incompatible with the volume requirements for a drug delivery device placed in the mouth.

Regarding `CCN(CC)C(=O)/C(C#N)=C/c1cc(O)c(O)c([N+](=O)[O-])c1` [Entacapone], in data set [1], the “crossing of the blood-brain barrier” value is “does not cross the blood-brain barrier”, the physiological half-life result was “less than 1 hour” and the plasma half-life is 0.4 to 0.7 h.
As for `CC[C@@H](C(N)=O)N1CCCC1=O` [Levetiracetam], in data set [2], the “Fluctuation Index” value is 1.19 and 1.27.
For `Cc1ccc(C(=O)c2cc(O)c(O)c([N+](=O)[O-])c2)cc1` [Tolcapone], in data set [1], the “crossing of the blood-brain barrier” value is given as “crosses the barrier”, the hepatotoxicity result is “limited by its hepatotoxicity” and the plasma half-life was 2 to 3 h.
In the case of `NC(=O)N1c2ccccc2C=Cc2ccccc21` [Carbamazepine], in data set [2], the “Fluctuation Index” value was 0.31 and 0.26 and 0.47 and 0.49.
The solubility is the concentration that dissolves in the medium under given conditions. As for `N[C@@H](Cc1ccc(O)c(O)c1)C(=O)O` [LD, levodopa], the solubility result in data set [3] was “about 50 mg/mL”; in data set [4] (aqueous buffer, read-out: solubility), about 34 mM (≈ 6700 µg/mL); in data set [4], “about 0.68 g/100 mL”.
